Experimental data taken from ChEMBL document CHEMBL2202968, “2-Styrylindolium based fluorescent probes visualize neurofibrillary tangles in Alzheimer's disease” (Bioorg Med Chem Lett, 2012).
The source made the active and inactive calls. The calls are words filed in the database; no cut-off is given here.

What was measured:
[1] = molecular target: T1, Microtubule-associated protein tau (Homo sapiens, UniProt P10636); experiment: Displacement of thiazine red R from human Tau aggregate expressed in Escherichia coli after 30 mins by fluorimetric analysis
[2] = Aqueous solubility of the compound; format: physicochemical; conditions: buffer
[3] = molecular target: Amyloid-beta precursor protein (Homo sapiens) (UniProt P05067); experiment: Binding affinity to amyloid beta aggregates in Alzheimer patient hippocampus by fluorescence microscopy; format: tissue-based
[4] = molecular target: T1, Microtubule-associated protein tau; experiment: Binding affinity to Tau aggregates in Alzheimer patient hippocampus by fluorescence microscopy; format: tissue-based
[5] = system: HepG2; experiment: Cytotoxicity against human HepG2 cells after 24 hrs; format: cell-based; conditions: HepG2, 24 h
[6] = organism: Danio rerio; experiment: Toxicity against Zebra fish embryo assessed as lesions up to 10 uM at 24 hrs post-fertilization by microscopic analysis; format: organism-based; conditions: zebrafish, in vivo
[7] = Binding affinity to amyloid beta (1 to 40) aggregate
[8] = Displacement of thiazine red R from amyloid beta (1 to 40) aggregate after 30 mins by fluorimetric analysis
[9] = organism: Danio rerio; experiment: Toxicity against juvenile Zebra fish assessed as lesions in yolk sac up to 10 uM at 72 hrs post-fertilization by microscopic analysis; format: organism-based; conditions: zebrafish, in vivo

T1 sequence (P10636 whole entry): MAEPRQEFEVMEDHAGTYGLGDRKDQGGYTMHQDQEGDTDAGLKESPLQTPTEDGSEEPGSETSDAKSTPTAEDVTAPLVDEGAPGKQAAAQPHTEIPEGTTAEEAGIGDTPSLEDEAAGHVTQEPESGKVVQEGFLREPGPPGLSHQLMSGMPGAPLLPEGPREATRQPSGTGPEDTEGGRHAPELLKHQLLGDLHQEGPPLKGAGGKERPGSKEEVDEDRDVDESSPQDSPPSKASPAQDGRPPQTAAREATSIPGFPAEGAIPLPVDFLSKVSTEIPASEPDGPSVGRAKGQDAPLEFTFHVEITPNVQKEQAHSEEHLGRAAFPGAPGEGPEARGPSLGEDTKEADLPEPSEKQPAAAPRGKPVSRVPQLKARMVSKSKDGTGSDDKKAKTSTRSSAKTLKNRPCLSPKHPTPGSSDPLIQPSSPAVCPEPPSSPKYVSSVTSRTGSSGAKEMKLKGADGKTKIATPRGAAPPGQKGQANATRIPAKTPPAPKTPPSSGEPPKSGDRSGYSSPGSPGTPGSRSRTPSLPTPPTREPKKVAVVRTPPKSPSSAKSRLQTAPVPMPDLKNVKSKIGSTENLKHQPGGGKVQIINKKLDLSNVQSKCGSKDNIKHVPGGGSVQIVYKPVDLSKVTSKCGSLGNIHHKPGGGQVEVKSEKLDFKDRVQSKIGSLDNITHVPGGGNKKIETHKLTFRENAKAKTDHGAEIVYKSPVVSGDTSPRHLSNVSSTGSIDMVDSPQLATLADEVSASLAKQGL
Chain of Amyloid-beta precursor protein (Homo sapiens) (P05067 whole entry): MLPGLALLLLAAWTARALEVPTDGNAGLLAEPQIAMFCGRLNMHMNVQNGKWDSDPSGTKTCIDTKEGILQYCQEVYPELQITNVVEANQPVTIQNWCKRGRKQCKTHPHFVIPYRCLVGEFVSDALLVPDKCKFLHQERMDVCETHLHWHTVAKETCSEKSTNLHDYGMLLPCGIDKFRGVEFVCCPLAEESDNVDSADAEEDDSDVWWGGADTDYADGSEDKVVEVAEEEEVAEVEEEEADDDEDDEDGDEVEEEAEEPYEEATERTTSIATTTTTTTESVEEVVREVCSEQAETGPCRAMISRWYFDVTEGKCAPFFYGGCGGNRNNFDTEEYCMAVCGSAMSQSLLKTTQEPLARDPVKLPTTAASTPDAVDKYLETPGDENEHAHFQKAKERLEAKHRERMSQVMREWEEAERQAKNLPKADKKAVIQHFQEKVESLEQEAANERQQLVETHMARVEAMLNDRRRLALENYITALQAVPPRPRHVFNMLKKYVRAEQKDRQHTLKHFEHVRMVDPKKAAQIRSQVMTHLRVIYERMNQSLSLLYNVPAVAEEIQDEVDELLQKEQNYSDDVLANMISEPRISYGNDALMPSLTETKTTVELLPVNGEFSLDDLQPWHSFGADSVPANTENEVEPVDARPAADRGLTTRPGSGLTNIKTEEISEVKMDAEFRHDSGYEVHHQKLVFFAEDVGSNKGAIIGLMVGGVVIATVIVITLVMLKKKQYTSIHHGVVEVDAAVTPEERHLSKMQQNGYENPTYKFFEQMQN

| Structure (SMILES) | IC50 [1] [nM] | solubility [2] [µg/mL] | Activity [3] | Activity [4] | EC50 [5] [nM] | Activity [6] | Ki [7] [nM] | IC50 [8] [nM] | Activity [9] |
| --- | --- | --- | --- | --- | --- | --- | --- | --- | --- |
| C[N+]1=C(/C=C/c2ccc(N3CCCC3)cc2)C(C)(C)c2ccccc21.[I-] | 5.1 | > 500 | inactive | Active | 8310 | Non-toxic | – | – | – |
| COc1ccc(/C=C/C2=[N+](C)c3ccccc3C2(C)C)cc1.[I-] | – | > 500 | inactive | Active | 10900 | Non-toxic | – | – | – |
| COc1cc(/C=C/c2ccc(O)cc2)ccc1/C=C/c1ccc(O)cc1 | – | – | – | – | – | – | 26.8 | 140 | – |
| CCCC[N+]1=C(/C=C/c2ccc(N(CC)CC)cc2)C(C)(C)c2ccccc21.[I-] | 1.41 | > 100 | inactive | Active | 930 | Non-toxic | – | 1.37 | Toxic |
| CCN(CC)c1ccc(/C=C/C2=[N+](C)c3ccccc3C2(C)C)cc1.[I-] | – | > 500 | inactive | Active | 8570 | Non-toxic | – | – | – |
| C[N+]1=C(/C=C/c2ccc(O)cc2)C(C)(C)c2ccccc21.[I-] | – | > 500 | inactive | Active | – | – | – | – | – |
| CN1CCN(c2ccc(/C=C/C3=[N+](C)c4ccccc4C3(C)C)cc2)CC1.[I-] | – | > 500 | inactive | Active | – | – | – | – | – |
| CNc1ccc(-c2nc3ccc(O)cc3s2)cc1 [PITTSBURGH COMPOUND B UNLABELLED] | 3260 | – | – | – | – | – | – | – | – |
| CNc1ccc(-c2ccc3ccccc3n2)cc1 | > 10000 | – | – | – | – | – | – | > 10000 | – |
| CC(=C(C#N)C#N)c1ccc2cc(N(C)CCF)ccc2c1 | 1630 | – | – | – | – | – | – | 1470 | – |
